The structures appear in SMILES notation. Calls of active or inactive are those of the source. How the calls were made is not given here.

For orientation: IC50 means the concentration that inhibits the measured activity by half.

The assay has as its system Trypanosoma brucei growth inhibition. The assay is described as follows: trypanosome proliferation inhibitors (AID 1159557).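 Further: parasites exposed to compound for 48 h before the resazurin readout.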
With `COCc1cc(Nc2ccccc2)nc(-c2ccccn2)n1`, the IC50 is > 40 µM (inactive).

With `Cc1cn[nH]c1C1CCCN(Cc2nc3ccccc3n2C)C1` (stereo not drawn), the IC50 is 6.3 µM.

`CC(C)C[C@H](NC(=O)c1ccc(-c2ccccc2)o1)C(=O)NC1(C#N)CC1`: the IC50 was 0.1 µM.

`COc1cc(OC)cc(C(=O)N[C@@H](CC(C)C)C(=O)NC2(C#N)CC2)c1`: the IC50 was 0.5 µM.

`Clc1ccc(CN2CCN(C3=NCCN3)CC2)cc1Cl`: the IC50 was > 40 µM (inactive).

For `O=C(Nc1nc(-c2ccc(F)cc2)cs1)c1ccc([N+](=O)[O-])s1`, the IC50 was 0.25 µM.

Turning to `COc1cnc2ccc(=O)n(CCN3CCC(NC(=O)Cc4ccc(Cl)c(Cl)c4)CC3)c2c1`, the IC50 is 0.25 µM.

For `O=c1cc(CSc2ccc(Cl)cc2)nc(-c2ccccn2)[nH]1`, the IC50 was 0.79 µM.

As for `Cc1cccc(NS(=O)(=O)c2ccc3c(c2)C(=O)c2cc(S(=O)(=O)Nc4cccc(C)c4C)ccc2-3)c1C`, the IC50 is 7.9 µM.

With `O=C(c1ccccc1)N1CCC(C(=O)N2CCC(Oc3ccccc3Cl)CC2)CC1`, the IC50 is 0.5 µM.

For `O=c1ccc2ccc(F)c3c2n1C[C@H]3CN1CCN(CC(O)c2cc3c(cn2)OCS3)CC1` (stereo partly drawn), the IC50 is 0.2 µM.

Regarding `Cc1cccc(N2CCCN(Cc3c[nH]c4ccccc34)CC2)n1`, the concentration for half-maximal inhibition (IC50) was 13 µM.

Take `COc1cccc(S(=O)(=O)Nc2ccc3c(c2)CC(N2CCC(NC(=O)C4CC4)CC2)C3)c1` (stereo not drawn): the IC50 is 1 µM.

In the case of `COc1ccc2nc(N(Cc3cccnc3)C(=O)C3CCC3)sc2c1`, the IC50 is 20 µM.

Turning to `CCN(Cc1cccs1)C(=O)CSc1nnc(-c2ccc3c(c2)OCO3)o1`, the IC50 was 25 µM.

Take `NC(=O)c1cc(F)ccc1Nc1nc(NC2CCC(O)CC2)ncc1Cl` (stereo not drawn): the IC50 is 0.16 µM.

For the molecule `Cc1ccc2c(c1)SC(C(=O)Nc1n[nH]c(-c3ccccn3)n1)C2` (stereo not drawn), the IC50 is 4 µM.

On to `CC(C)c1cc(C(=O)N2CCCC(c3cc4ncccc4[nH]3)C2)on1` (stereo not drawn), for which the IC50 is > 40 µM (inactive).

With `CCc1ccc2nc(NC(=O)c3cc(N4CCOCC4)ccn3)sc2c1`, the IC50 was 0.5 µM.

As for `CC(C)CC(=O)NC(c1cccs1)c1ccc2cccnc2c1O` (stereo not drawn), the IC50 was 0.63 µM.

As for `Cc1ccc2nc(N(Cc3cccnc3)C(=O)CCc3ccccc3)sc2c1`, the IC50 is 13 µM.

Consider `Nc1cc(-c2ccc3ncnc(N4CCOCC4)c3c2)cnc1N`, for which the IC50 was 0.05 µM.

For `Cc1cc2cc(CNc3ccc4c(c3)OCO4)c(=O)n(CCO)c2cc1C`, the IC50 is 25 µM.

`CS(=O)(=O)c1cccc(-c2cnc(N)c3c(-c4ccc(CO)cc4)csc23)c1`: the IC50 was 2 µM.

With `CC(=O)NC1(c2ccccc2)CCN(CC(=O)Nc2ccccc2-c2ccccc2)CC1`, the IC50 is 0.63 µM.

In the case of `CCS(=O)(=O)Nc1ccc(C2=NN(C(=O)c3cccs3)C(c3ccccc3OC)C2)cc1` (stereo not drawn), the half-maximal inhibitory concentration (IC50) was 5 µM.

In the case of `Cc1ccnc(NS(=O)(=O)c2ccc(NC(=O)c3ccc([N+](=O)[O-])s3)cc2)n1`, the IC50 was 0.2 µM.

Consider `NCc1ccc2c(Cl)cc(Cl)c(O)c2n1`, for which the IC50 was 0.4 µM.

Regarding `CCCn1c(NC(=O)Cc2ccc(Cl)cc2)nc2ccccc21`, the half-inhibitory concentration (IC50) was 2 µM.

`Cn1nc(C(=O)N2CCc3ccccc32)c2c1CCS(=O)(=O)C2`: the IC50 is 4 µM.

As for `O=C(Nc1nc(-c2ccccn2)cs1)c1ccccc1-n1cnnn1`, the IC50 is 0.63 µM.

For `CN(Cc1ccccc1)Cc1nnnn1C1CCN(Cc2ccc(-n3ccnc3)cc2)CC1`, the IC50 was > 40 µM (inactive).

On to `CC(=O)Nc1ccc(Nc2nccc(-c3cnn4ncccc34)n2)cc1C(F)(F)F`, for which the IC50 was 0.032 µM.

For `CCc1nn(-c2ncc(F)c(NC(C)C)n2)c(N)c1C1CCCCC1`, the IC50 was 10 µM.

With `CCNc1cc(-c2ccccn2)nc(Nc2ccccc2)n1`, the IC50 was 25 µM.

With `Cc1ccc(S(=O)(=O)Nc2ccc(CN3CCN(C(=O)c4cccc(C)c4)CC3)cc2)cc1`, the IC50 was 0.25 µM.

Take `COc1ccc(C(=O)Nc2cc(C(F)(F)F)ccc2N2CCOCC2)c(OC)c1`: the half-inhibitory concentration (IC50) was 10 µM.

On to `CC(C)N(C(=O)CN1C(=O)C(N)C(=O)N(c2ccccc2)c2ccccc21)c1ccccc1` (stereo not drawn), for which the IC50 is > 40 µM (inactive).

For `C=CCn1nc([N+](=O)[O-])nc1Oc1ccc(Cl)cc1Cl`, the IC50 is 20 µM.

In the case of `O=C(NCCc1ccccc1Cl)c1cccn1-c1cccnc1`, the IC50 was 32 µM.

`CCC1Oc2cc(S(=O)(=O)N(C)CC(=O)N3CCc4ccccc4C3)c(C)cc2NC1=O` (stereo not drawn): the IC50 was 25 µM.

As for `CCOc1ccc(OCC(=O)N2c3ccccc3CC2C(=O)NC)cc1` (stereo not drawn), the half-maximal inhibitory concentration (IC50) was 0.5 µM.

`Cc1ccc(S(=O)(=O)Cn2nnnc2C(c2cccnc2)N2CCN(c3ccccc3)CC2)cc1` (stereo not drawn): the IC50 is 32 µM.

Consider `Cc1ccc(CNC2CCN(C[C@@H]3Cn4c(=O)ccc5ccc(=O)n3c54)CC2)cc1F`, for which the IC50 is 1.6 µM.

On to `COc1ccc(S(=O)(=O)Nc2ccc(CN3CCN(C(=O)c4cccc(C#N)c4)CC3)cc2)cc1`, for which the IC50 was 0.4 µM.

For the molecule `O=C(Nc1nc2ccccc2[nH]1)c1c(O)c2cccc3c2n(c1=O)CC3`, the IC50 was 16 µM.

For `O=C1CSC(c2cccnc2)N1c1ccc(Cl)cc1Cl` (stereo not drawn), the IC50 is > 40 µM (inactive).

For the molecule `CNC(=O)C1Cc2ccccc2N1C(=O)Cc1ccccc1` (stereo not drawn), the IC50 is 0.63 µM.

In the case of `COc1cccc(-c2cc(C(F)(F)F)nc(-n3ccc([N+](=O)[O-])n3)n2)c1`, the IC50 is 32 µM.

For `CCc1cccc(-n2nc(OCC(=O)NC3CCCC3)c3cccnc32)c1`, the IC50 was > 40 µM (inactive).

With `COc1ccc2nccc(NC(=O)C3(OC)CCN(CC(O)c4ccc5c(c4)OCCO5)CC3)c2n1` (stereo not drawn), the IC50 is 0.4 µM.

For the molecule `CCOc1ccc(CN(C)Cc2nc(N)nc(Nc3ccc(C)cc3)n2)cc1`, the IC50 was 2.5 µM.

Take `COc1ccc(NS(=O)(=O)c2cc(NC(=O)c3ccc([N+](=O)[O-])s3)ccc2OC)cc1`: the IC50 was 0.05 µM.

Turning to `NC(=O)c1cc(F)ccc1Nc1nc(NC2CCC(O)CC2)ncc1Br` (stereo not drawn), the IC50 was 0.079 µM.

With `O=C(Nc1nc2ccccc2[nH]1)c1ccc2nc[nH]c2c1`, the IC50 was > 40 µM (inactive).

As to `CC(C)c1sc(Cl)nc1C(=O)NCCc1nc(C(=O)Nc2ccc3c(c2)OCO3)cs1`, the IC50 was 25 µM.

On to `COc1ccc(CN2C(=O)C(O)(CC(=O)c3ccncc3)c3cc(Br)ccc32)cc1OC` (stereo not drawn), for which the IC50 is 0.63 µM.

In the case of `COc1ccc(C(=O)NC2CCN(CCn3c(=O)ccc4ncc(F)cc43)CC2)cc1Cl`, the IC50 was 0.13 µM.

`COc1ccc(C(=O)N2CCC(Nc3cccnc3)C2)c(OC)n1` (stereo not drawn): the IC50 was > 40 µM (inactive).

Regarding `O=C(NCC(c1cccnc1)N1CCc2ccccc2C1)C(=O)Nc1cccc(Cl)c1` (stereo not drawn), the IC50 was 16 µM.

On to `CN(Cc1cc2ccccc2s1)c1ncc2c(N)nc(N)nc2n1`, for which the IC50 was 32 µM.

Consider `Cc1ccc(S(=O)(=O)Nc2ccc(CN3CCN(C(=O)c4cccc(C#N)c4)CC3)cc2)cc1`, for which the IC50 was 0.16 µM.

On to `Cc1nnnn1-c1cccc(C(=O)N2CCC[C@@]3(C)c4ncncc4CCC23)c1` (stereo partly drawn), for which the IC50 is > 40 µM (inactive).

As to `O=C(NCc1ccc(Cl)cc1)C1CN(C(=O)c2ccc(F)cc2)CCS1` (stereo not drawn), the IC50 is 0.79 µM.

As to `Cc1[nH]nc(C(F)(F)F)c1NC(=O)CCn1cc(Cl)c([N+](=O)[O-])n1`, the IC50 was 0.5 µM.

`c1ccc(CCNCc2cncc3nc(-c4cnccn4)n(C4CCCCC4)c23)cc1`: the IC50 is 32 µM.

As for `Cn1cc(CN2CCN(c3ccc4c(c3)CCN(C(=O)[C@H]3C[C@@H]3c3ccccc3)CC4)CC2)cn1`, the IC50 is 25 µM.

As to `CC(=O)Nc1nc(-c2cc(C)ccc2C)c(C)s1`, the IC50 was > 40 µM (inactive).

Regarding `O=C(c1ccc(OCCCc2cnc[nH]2)cc1)C1CC1`, the IC50 is 10 µM.

Regarding `Cc1ccc(C)c(-n2nnnc2Sc2nc([N+](=O)[O-])nn2C)c1`, the IC50 is 13 µM.

Take `Cc1cc(NC(=O)c2ccc([N+](=O)[O-])s2)ccc1Br`: the IC50 is 0.32 µM.

Turning to `Cc1nc(N2CCC(C(=O)N3CCC(O)(c4cccnc4)CC3)CC2)nc2ccc(C(C)C)cc12`, the IC50 is 20 µM.

Turning to `O=S(=O)(NCC(c1cccnc1)N1CCN(c2ccc(F)cc2)CC1)c1cccs1` (stereo not drawn), the IC50 is > 40 µM (inactive).

For `COc1cc(Nc2nccc(Nc3onc(C)c3C)n2)cc(S(=O)(=O)C2CCOCC2)c1`, the IC50 was 0.5 µM.

Regarding `CC(C)COC(=O)Nc1ccc(N2CCC(CNS(=O)(=O)c3ccccc3)CC2)c(F)c1`, the IC50 was 2.5 µM.

In the case of `O=C(NCCNc1noc(-c2ccc([N+](=O)[O-])cc2)n1)c1ccc(Cl)cc1`, the IC50 was 3.2 µM.

For `N#Cc1c(Oc2cccc(Cl)c2)cccc1[N+](=O)[O-]`, the IC50 was 0.0079 µM.

As for `c1ccc(-c2nc(NC3CCCC3)c3ccccc3n2)nc1`, the IC50 is 6.3 µM.

For the molecule `CNc1cncc(C2CCCN2C(=O)Cc2coc3cc(C)ccc23)n1` (stereo not drawn), the IC50 is > 40 µM (inactive).

Take `O=C(N1CCc2ccccc2CC1)C1(C(=O)N2CCC(n3c(=O)[nH]c4ncccc43)CC2)CC1`: the IC50 was > 40 µM (inactive).

With `O=C(NCC(c1cccs1)N1CCOCC1)c1ccc([N+](=O)[O-])o1` (stereo not drawn), the IC50 is 0.32 µM.

Take `O=C(Nc1nccs1)c1ccccc1Cn1cc([N+](=O)[O-])cn1`: the IC50 is 0.32 µM.

As for `CC(CCc1ccccc1)NC(=O)CN(Cc1ccccn1)Cc1ccccn1` (stereo not drawn), the IC50 is 10 µM.

Consider `COc1ccccc1C1CC(c2ccc(NS(C)(=O)=O)cc2)=NN1C(=O)c1cccs1` (stereo not drawn), for which the IC50 was 16 µM.

Consider `O=[N+]([O-])c1cccc(Nc2cncc(-c3ccccc3CO)c2)c1`, for which the IC50 was > 40 µM (inactive).

Consider `NC(N)=Nc1nc(-c2ccc(NC(N)=NCCN3CCCC3)cc2)cs1`, for which the IC50 was 0.04 µM.

For the molecule `COc1cccc(Nc2cc(C)nc(-c3ccccn3)n2)c1`, the IC50 is > 40 µM (inactive).

As for `NC(=O)c1ncccc1Nc1nc(NC2CCC(O)CC2)ncc1Br` (stereo not drawn), the IC50 is 0.32 µM.

As to `CC(C)(C)Nc1nc(Nc2ccc3c(c2)CS(=O)(=O)C3)nc2[nH]ccc12`, the IC50 was 0.79 µM.

On to `CC(CNS(=O)(=O)c1ccc(OC(F)F)cc1)c1ccc(NC(=O)c2ccncc2)cc1` (stereo not drawn), for which the IC50 was 7.9 µM.

Turning to `CN(C)CCN(C)Cc1ccc(F)cc1NS(=O)(=O)c1ccc(Cl)c(Cl)c1`, the IC50 was 5 µM.

As to `O=C(NCCc1csc(-c2ccc(F)cc2)n1)c1cccs1`, the IC50 is 0.25 µM.

With `O=C(COc1nn(-c2ccccc2)c2ncccc12)NCc1ccccc1`, the IC50 is > 40 µM (inactive).

Source of the values: PubChem BioAssay AID1159557 (GlaxoSmithKline (GSK), 2015).
